Marks after values point to notes of the source that are not given here.
Key:
GIPR = target: T1, GIPR (Homo sapiens, UniProt P48546); experiment: In vitro cell activity, cAMP production in HEK293 cells expressing GIPR; format: cell-based
T1 construct: expressed in transfected cells; host or cells: HEK293 (HEK293-GIPR)
T1 sequence (P48546 22-466): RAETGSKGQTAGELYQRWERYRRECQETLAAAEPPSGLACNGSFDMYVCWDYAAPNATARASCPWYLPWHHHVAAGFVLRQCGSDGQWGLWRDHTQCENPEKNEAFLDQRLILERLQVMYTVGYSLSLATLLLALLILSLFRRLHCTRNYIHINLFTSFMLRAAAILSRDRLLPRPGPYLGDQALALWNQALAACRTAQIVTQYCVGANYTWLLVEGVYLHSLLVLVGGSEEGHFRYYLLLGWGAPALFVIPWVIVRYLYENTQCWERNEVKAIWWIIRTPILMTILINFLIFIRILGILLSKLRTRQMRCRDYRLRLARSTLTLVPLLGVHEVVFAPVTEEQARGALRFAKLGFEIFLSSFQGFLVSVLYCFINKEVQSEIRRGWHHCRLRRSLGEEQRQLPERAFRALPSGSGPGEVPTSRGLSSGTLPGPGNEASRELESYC
Outline: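 cAMP accumulation is quantified by homogeneous TR-FRET (cAMP-d2 plus anti-cAMP cryptate) in GIPR-expressing HEK293 cells seeded from a 4×10^5 cells/mL suspension and treated with compound. The signal ratio is plotted against concentration and fitted to a four-parameter curve to give EC50.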

GCGR = target: T2, GCGR (Homo sapiens, UniProt P47871); experiment: In vitro cell activity, cAMP production in HEK293 cells expressing GCGR; format: cell-based
T2 construct: expressed in transfected cells; host or cells: HEK293 (HEK293-GCGR)
Outline: (§1)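 Assay format: cells at 4×10^5 cells/mL, cAMP sensed by d2/cryptate FRET pair, dual-wavelength read at 665 and 620 nm. Potency expressed as EC50 from nonlinear fitting.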

[1] = Glucose tolerance assessment in normal C57BL/6 mice (Example 4); format: in vivo; conditions: 3 nmol/kg s.c. single dose, 24 h after administration
Experimental: (§2) Twelve hours after the single administration, the animals were fasted for 12 hours and had free access to water. Blood was collected from the tail vein to determine the basal blood glucose level of each group of animals, and then 2 g/kg glucose solution was injected intraperitoneally. Blood glucose was tested at 15, 30, 60, and 90 min after glucose administration. The blood glucose concentration-time curve was drawn according to the blood glucose values measured at different time points, and the AUC0~90min of each dose group was calculated as shown in Table 4 and Figure 1. Table 4: Effects of single administration of HEC-PT74, HEC-PT75, HEC-PT77, HEC-PT78, HEC-PT80, and HEC-PT82 on glucose tolerance in normal C57 mice 24 h after administration

[2] = In vivo efficacy evaluation in db/db mouse model (blood glucose); set-up: species or system db/db mice
Experimental: Blood glucose was tested before each administration.

GLP-1R = target: T3, GLP-1R (Homo sapiens, UniProt P43220); experiment: In vitro cell activity, cAMP production in HEK293 cells expressing GLP-1R; format: cell-based
T3 construct: expressed in transfected cells; host or cells: HEK293 (HEK293-GLP-1R)
Outline: as §1

[3] = Glucose tolerance assessment in normal C57BL/6 mice (Example 5); format: in vivo; conditions: 3 nmol/kg s.c. single dose, 24 h after administration
Experimental: as §2, with “Table 5” for “Table 4”, “Figure 2.” for “Figure 1.”, “Table 5:” for “Table 4:”, “of HEC-PT86, HEC-PT96, HEC-PT112, HEC-PT113, HEC-PT114,” for “of HEC-PT74, HEC-PT75, HEC-PT77, HEC-PT78, HEC-PT80,”, “and HEC-PT119” for “and HEC-PT82”

[4] = 15 min after 2 g/kg glucose i.p.
[5] = 30 min after 2 g/kg glucose i.p.
[6] = 60 min after 2 g/kg glucose i.p.
[7] = 90 min after 2 g/kg glucose i.p.
[8] = basal before 2 g/kg glucose i.p.
[9] = blood glucose AUC, 2 g/kg glucose i.p.

T3 sequence (P43220 24-463, species assumed): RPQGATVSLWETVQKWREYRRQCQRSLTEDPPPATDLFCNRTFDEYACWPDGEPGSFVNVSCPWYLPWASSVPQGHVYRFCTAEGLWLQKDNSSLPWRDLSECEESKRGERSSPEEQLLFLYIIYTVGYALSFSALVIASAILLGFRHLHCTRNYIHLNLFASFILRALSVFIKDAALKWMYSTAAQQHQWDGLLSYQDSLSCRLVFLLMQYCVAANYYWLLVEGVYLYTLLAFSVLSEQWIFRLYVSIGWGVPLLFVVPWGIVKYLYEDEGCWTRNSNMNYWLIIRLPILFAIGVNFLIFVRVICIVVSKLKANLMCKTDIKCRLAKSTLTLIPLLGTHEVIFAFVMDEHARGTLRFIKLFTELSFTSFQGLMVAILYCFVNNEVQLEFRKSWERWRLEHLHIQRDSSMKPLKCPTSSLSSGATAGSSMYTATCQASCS
T2 sequence (P47871 26-477, species assumed): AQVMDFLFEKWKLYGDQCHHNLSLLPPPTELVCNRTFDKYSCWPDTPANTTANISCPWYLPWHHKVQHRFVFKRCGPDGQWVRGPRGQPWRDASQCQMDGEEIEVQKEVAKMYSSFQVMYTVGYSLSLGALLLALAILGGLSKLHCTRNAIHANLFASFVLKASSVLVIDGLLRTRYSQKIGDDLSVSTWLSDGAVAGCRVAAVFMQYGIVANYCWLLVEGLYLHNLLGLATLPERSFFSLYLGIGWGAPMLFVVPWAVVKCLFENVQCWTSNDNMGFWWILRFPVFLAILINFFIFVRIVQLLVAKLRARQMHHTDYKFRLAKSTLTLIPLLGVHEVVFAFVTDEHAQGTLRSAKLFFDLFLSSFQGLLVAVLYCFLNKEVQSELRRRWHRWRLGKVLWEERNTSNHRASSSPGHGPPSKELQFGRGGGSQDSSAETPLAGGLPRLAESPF

## CC[C@H](C)[C@H](NC(=O)[C@H](Cc1ccccc1)NC(=O)[C@H](CCC(=O)O)NC(=O)[C@H](CCCNC(=N)N)NC(=O)[C@H](CCC(N)=O)NC(=O)[C@H](C)NC(=O)[C@H](CCCCNC(=O)COCCOCCNC(=O)CC[C@H](NC(=O)CCCCCCCCCCCCCCCCC(=O)O)C(=O)O)NC(=O)[C@H](CCC(=O)O)NC(=O)[C@H](CC(=O)O)NC(=O)[C@H](CC(C)C)NC(=O)[C@H](CC(C)C)NC(=O)[C@@H](NC(=O)[C@H](CO)NC(=O)[C@H](Cc1ccc(O)cc1)NC(=O)[C@H](CC(=O)O)NC(=O)[C@H](CO)NC(=O)[C@@H](NC(=O)[C@](C)(Cc1ccccc1F)NC(=O)[C@@H](NC(=O)CNC(=O)[C@H](Cc1c[nH]cn1)NC(=O)C(C)(C)NC(=O)[C@@H](N)Cc1ccc(O)cc1)[C@@H](C)O)[C@@H](C)O)[C@@H](C)CC)C(=O)N[C@@H](CCC(=O)O)C(=O)N[C@@H](Cc1c[nH]c2ccccc12)C(=O)N[C@@H](CC(C)C)C(=O)N[C@@H](CC(C)C)C(=O)N[C@@H](C)C(=O)NCC(=O)NCC(=O)N1CCC[C@H]1C(=O)N[C@@H](CO)C(=O)N[C@@H](CO)C(=O)NCC(=O)N[C@@H](C)C(=O)N1CCC[C@H]1C(=O)N1CCC[C@H]1C(=O)N1CCC[C@H]1C(=O)N[C@@H](CO)C(=O)O [HEC-PT74]
GIPR
  EC50: 0.0043 nM
GCGR
  EC50: 0.319 nM
[1]; [4]
  Blood glucose level (mM) 15 min: 14.0 ± 4.3 mM
[1]; [5]
  Blood glucose level (mM) 30 min: 10.0 ± 3.1 mM
[1]; [6]
  Blood glucose level (mM) 60 min: 8.4 ± 2.5 mM
[1]; [7]
  Blood glucose level (mM) 90 min: 7.1 ± 2.3 mM
[1]; [8]
  Blood glucose level (mM) 0 min: 4.6 ± 1.0 mM
[1]; [9]
  AUC0-90 min: 827.3±234.6^a
[2]; db/db mice, 10 nmol/kg
  blood glucose after administration: significantly reduce blood glucose
[2]; db/db mice, 10 nmol/kg s.c. once every three days, D0 (before first dose)
  Random blood glucose (mM) D0: 25.5 ± 4.7 mM
[2]; db/db mice, 10 nmol/kg s.c. once every three days, D3
  Random blood glucose (mM) D3: 13.5 ± 4.4 mM
[2]; db/db mice, 10 nmol/kg s.c. once every three days, D4
  Random blood glucose (mM) D4: 20.0 ± 2.9 mM
[2]; db/db mice, 10 nmol/kg s.c. once every three days, D5
  Random blood glucose (mM) D5: 22.1 ± 3.9 mM
[2]; db/db mice, 10 nmol/kg s.c. once every three days, D6
  Random blood glucose (mM) D6: 21.1 ± 3.0 mM
[2]; db/db mice, 10 nmol/kg s.c. once every three days, D7
  Random blood glucose (mM) D7: 22.7 ± 2.9 mM
[2]; db/db mice, 10 nmol/kg s.c. once every three days, D10
  Random blood glucose (mM) D10: 12.1 ± 2.1 mM
[2]; db/db mice, 10 nmol/kg s.c. once every three days, D13
  Random blood glucose (mM) D13: 12.5 ± 2.7 mM
[2]; db/db mice, 10 nmol/kg s.c. once every three days, D16
  Random blood glucose (mM) D16: 12.1 ± 2.9 mM
[2]; db/db mice, 10 nmol/kg s.c. once every three days, D19
  Random blood glucose (mM) D19: 16.0 ± 2.3 mM
[2]; db/db mice, 10 nmol/kg s.c. once every three days, D22
  Random blood glucose (mM) D22: 13.9 ± 3.2 mM
[2]; db/db mice, 10 nmol/kg s.c. once every three days, D25
  Random blood glucose (mM) D25: 16.3±4.2^a mM
[2]; db/db mice, 10 nmol/kg s.c., 6 h
  Random blood glucose (mM) 6 h: 16.7 ± 5.1 mM
[2]; db/db mice, 10 nmol/kg s.c., 24 h
  Random blood glucose (mM) 24 h: 7.3 ± 1.6 mM
[2]; db/db mice, 10 nmol/kg s.c., 48 h
  Random blood glucose (mM) 48 h: 9.2 ± 2.9 mM
[2]; db/db mice, 10 nmol/kg, after administration
  time at which blood glucose levels reached the lowest level: about 24 hours
[2]; db/db mice, long-term repeated administration
  blood glucose lowering after long-term administration compared with LY3298176: not inferior to the positive control LY3298176
[2]; db/db mice, same dose 10 nmol/kg
  blood glucose reducing effect after administration compared with LY3298176: slightly better than the positive control LY3298176
[2]; type II diabetes model db/db mice
  blood glucose level after long-term administration: significantly improve the blood glucose level
GLP-1R
  EC50: 0.104 nM

## CC[C@H](C)[C@H](NC(=O)[C@H](CCCCN)NC(=O)[C@H](CC(=O)O)NC(=O)[C@H](CCCCNC(=O)COCCOCCNC(=O)CC[C@H](NC(=O)CCCCCCCCCCCCCCCCC(=O)O)C(=O)O)NC(=O)[C@H](CC(C)C)NC(=O)[C@@H](NC(=O)[C@H](CO)NC(=O)[C@H](Cc1ccc(O)cc1)NC(=O)[C@H](CC(=O)O)NC(=O)[C@H](CO)NC(=O)[C@@H](NC(=O)[C@](C)(Cc1ccccc1F)NC(=O)[C@@H](NC(=O)CNC(=O)[C@H](CCC(N)=O)NC(=O)C(C)(C)NC(=O)[C@@H](N)Cc1ccc(O)cc1)[C@@H](C)O)[C@@H](C)O)[C@@H](C)CC)C(=O)N[C@@H](C)C(=O)N[C@@H](CCC(N)=O)C(=O)NC(C)(C)C(=O)N[C@@H](C)C(=O)N[C@@H](Cc1ccccc1)C(=O)N[C@H](C(=O)N[C@@H](CCC(=O)O)C(=O)N[C@@H](Cc1ccc(O)cc1)C(=O)N[C@@H](CC(C)C)C(=O)N[C@@H](CC(C)C)C(=O)N[C@@H](CCC(=O)O)C(=O)NCC(=O)NCC(=O)N1CCC[C@H]1C(=O)N[C@@H](CO)C(=O)N[C@@H](CO)C(=O)NCC(=O)N[C@@H](C)C(=O)N1CCC[C@H]1C(=O)N1CCC[C@H]1C(=O)N1CCC[C@H]1C(=O)N[C@@H](CO)C(N)=O)[C@@H](C)CC [HEC-PT114]
[3]; [4]
  Blood glucose level (mM) 15 min: 13.5 ± 1.0 mM
[3]; [5]
  Blood glucose level (mM) 30 min: 9.8 ± 0.8 mM
[3]; [6]
  Blood glucose level (mM) 60 min: 7.9 ± 0.8 mM
[3]; [7]
  Blood glucose level (mM) 90 min: 6.3 ± 0.8 mM
[3]; [8]
  Blood glucose level (mM) 0 min: 4.9 ± 1.0 mM
[3]; [9]
  AUC0-90 min: 791.0±55.3^a
GIPR
  EC50: 0.0567 nM
GCGR
  EC50: 0.138 nM
GLP-1R
  EC50: 0.12 nM

Source: patent EP4596574A1, “GLP-1/GCG/GIP TRIPLE-RECEPTOR AGONIST AND USE THEREOF” (Sunshine Lake Pharma Co., Ltd., priority 2022, dated 2024)
